According to the SangsterLogP compilation:

Row | Compound | logP
1 | O=C1CC(Sc2ccccn2)N1 (stereo unspecified) | 1.81
2 | O=C1CC(Oc2ccc([N+](=O)[O-])cc2)N1 (stereo unspecified) | 1.85
3 | CCOC(=O)CN1C(=O)CC1Oc1ccc2ccccc2c1 (stereo unspecified) | 2.8
4 | O=C1C[C@@H](Sc2ccccc2)N1 | 1.91
5 | O=C1CC(Sc2ccc(Cl)cc2)N1 (stereo unspecified) | 2.31
6 | CCOC(=O)CN1C(=O)CC1Sc1ccc2ccccc2c1 (stereo unspecified) | 3.4
7 | CCOC(=O)CN1C(=O)CC1Oc1ccc(C(=O)C=Cc2ccccc2)cc1 (stereo unspecified) | 3.3
8 | O=C1CC(Sc2ccc3ccccc3c2)N1 (stereo unspecified) | 2.64
9 | CC(C)(C)OC(=O)CN1C(=O)CC1Oc1ccc2ccccc2c1 (stereo unspecified) | 3.6
10 | O=C1CC(Oc2ccccc2)N1 (stereo unspecified) | 1.94
11 | O=C1CC(Oc2c3ccccc3cc3ccccc23)N1 (stereo unspecified) | 3.08
12 | CCOC(=O)CN1C(=O)CC1Oc1ccc(C(=O)c2ccccc2)cc1 (stereo unspecified) | 3

The next lines start with the values.

Row | logP | Compound
13 | 1.83 | O=C1CC(Oc2ccccc2C(=O)c2ccccc2)N1 (stereo unspecified)
14 | 2.14 | O=C1CC(Oc2ccc(C(=O)c3ccccc3)cc2)N1 (stereo unspecified)
15 | 2.62 | O=C1CC(Sc2ccccc2C(=O)OCc2ccccc2)N1 (stereo unspecified)
16 | 2.83 | O=C1CC(Oc2cccc(C(=O)OCc3ccccc3)c2)N1 (stereo unspecified)
17 | 2.61 | O=C1CC(Oc2ccc(-c3ccccc3)cc2)N1 (stereo unspecified)
18 | 2.29 | O=C1CC(Oc2ccc3ccccc3c2)N1 (stereo unspecified)
19 | 2.66 | O=C1CC(Oc2cccc3ccccc23)N1 (stereo unspecified)
20 | 2.56 | O=C1CC(Oc2ccc(C(=O)/C=C/c3ccccc3)cc2)N1 (stereo unspecified)
21 | 2.48 | O=C1CC(Oc2ccc(C(=O)CCc3ccccc3)cc2)N1 (stereo unspecified)
